Laboratory results from the supplement of paper PMC10307832.

What was measured:
Test in all cases: relative viability (nuclei count vs DMSO), 5 days (fraction); higher = more cells survive
[1] = compound: C1CC(C1)(C(=O)O)C(=O)O.[NH2-].[NH2-].[Pt+2] [Carboplatin] + CC(C)C[C@H](NC(=O)[C@H](Cc1ccccc1)NC(=O)c1cnccn1)B(O)O [Bortezomib] (partner 0.002 µM)
In short: (§1)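 Dosing by pin tool came one day after lung cancer cell lines were seeded in 1536-well plates, using either one drug or a fixed anchor-drug dose plus five library-drug doses (not always all listed) in √10 steps. After 5 days, nuclei were counted on 4× images. Relative viability is treated-well nuclei count divided by vehicle-well nuclei count, and values are medians of duplicate plates.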

[2] = compound: C1CC(C1)(C(=O)O)C(=O)O.[NH2-].[NH2-].[Pt+2] [Carboplatin] + C[C@]1(O)C[C@@H](c2nc(-c3ccc4ccc(-c5ccccc5)nc4c3)c3c(N)nccn32)C1 [Linsitinib] (partner 1 µM)
In short: as §1

[3] = compound: CC[C@H](C)N1C=C(C2=C(C=C(C=C21)C3=CN=C(C=C3)N4CCNCC4)C(=O)NCC5=C(C=C(NC5=O)C)C)C [GSK126] + Nc1nc2[nH]cc(CCc3ccc(C(=O)N[C@@H](CCC(=O)O)C(=O)O)cc3)c2c(=O)[nH]1 [Pemetrexed] (partner 0.2 µM)
In short: as §1

[4] = compound: NS(=O)(=O)OC[C@@H]1C[C@@H](n2ccc3c(N[C@H]4CCc5ccccc54)ncnc32)C[C@@H]1O [MLN4924] + COc1cccc2cc(-c3nc([C@H]4CC[C@H](C(=O)O)CC4)n4ncnc(N)c34)[nH]c12 [OSI-027] (partner 0.5 µM)
In short: as §1

| Cell Line | relative viability ([1]; first compound 0.08 µM) | relative viability ([1]; first compound 0.253 µM) | relative viability ([1]; first compound 0.8 µM) | relative viability ([1]; first compound 2.53 µM) | relative viability ([1]; first compound 8 µM) | relative viability ([2]; first compound 0.08 µM) | relative viability ([2]; first compound 0.253 µM) | relative viability ([2]; first compound 0.8 µM) | relative viability ([2]; first compound 2.53 µM) | relative viability ([2]; first compound 8 µM) | relative viability ([3]; first compound 0.08 µM) | relative viability ([3]; first compound 0.253 µM) | relative viability ([3]; first compound 0.8 µM) | relative viability ([3]; first compound 2.53 µM) | relative viability ([3]; first compound 8 µM) | relative viability ([4]; first compound 0.04 µM) | relative viability ([4]; first compound 0.1265 µM) | relative viability ([4]; first compound 0.4 µM) | relative viability ([4]; first compound 1.265 µM) | relative viability ([4]; first compound 4 µM) |
| --- | --- | --- | --- | --- | --- | --- | --- | --- | --- | --- | --- | --- | --- | --- | --- | --- | --- | --- | --- | --- |
| NCI-H2009 | 1.12 | 0.938 | 0.945 | 0.918 | 0.671 | 1.21 | 1.14 | 1.09 | 1.09 | 0.807 | 1.11 | 1.03 | 1 | 0.982 | 1.06 | 0.249 | 0.149 | 0.187 | 0.0664 | 0.0797 |
| NCI-H2023 | 1.06 | 1.18 | 1.02 | 0.717 | 0.204 | 0.745 | 0.644 | 0.73 | 0.576 | 0.205 | 0.251 | 0.231 | 0.224 | 0.268 | 0.13 | 0.383 | 0.361 | 0.163 | 0.0645 | 0.0536 |
| NCI-H2085 | 1.24 | 1.2 | 1.03 | 1 | 0.82 | 0.943 | 0.967 | 0.845 | 0.858 | 0.764 | 1.03 | 0.874 | 0.894 | 0.854 | 0.978 | 0.852 | 0.746 | 0.635 | 0.512 | 0.307 |
| NCI-H2087 | 0.945 | 0.699 | 0.781 | 0.833 | 0.521 | 1.09 | 0.857 | 0.782 | 0.871 | 0.585 | 0.611 | 0.666 | 0.685 | 0.645 | 0.648 | 0.41 | 0.498 | 0.516 | 0.14 | 0.104 |
| NCI-H2126 | 1.14 | 1.14 | 1.15 | 1.15 | 1.04 | 0.724 | 0.741 | 0.713 | 0.687 | 0.667 | 0.71 | 0.725 | 0.702 | 0.686 | 0.645 | 0.665 | 0.75 | 0.59 | 0.407 | 0.346 |
| NCI-H2228 | 1.05 | 1.35 | 1.07 | 0.905 | 0.467 | 0.601 | 1.08 | 0.719 | 0.653 | 0.641 | 0.374 | 0.312 | 0.354 | 0.312 | 0.392 | 0.611 | 0.683 | 0.148 | 0.141 | 0.14 |
| NCI-H2347 | 1.22 | 0.815 | 1.13 | 1.05 | 0.768 | 1.05 | 1.04 | 0.967 | 0.893 | 0.841 | 0.422 | 0.396 | 0.448 | 0.441 | 0.461 | 0.39 | 0.375 | 0.354 | 0.214 | 0.29 |
| NCI-H2405 | 1.03 | 1 | 0.994 | 0.912 | 0.89 | 0.957 | 0.871 | 0.882 | 0.833 | 0.842 | 1.01 | 0.993 | 0.994 | 1.09 | 0.94 | 0.749 | 0.684 | 0.493 | 0.309 | 0.271 |
| NCI-H3122 | 1.07 | 1.02 | 1.01 | 0.944 | 0.96 | 0.947 | 1.01 | 0.991 | 1.08 | 0.973 | 0.203 | 0.208 | 0.185 | 0.204 | 0.209 | 0.917 | 0.603 | 0.219 | 0.122 | 0.121 |
| PC-3 [JPC-3] | 0.928 | 0.81 | 0.748 | 0.798 | 0.742 | 0.953 | 0.942 | 0.888 | 0.919 | 0.931 | 1.15 | 1.04 | 1.08 | 1.22 | 1.08 | 0.829 | 0.744 | 0.659 | 0.283 | 0.237 |
| PC-14 | 0.846 | 0.845 | 0.757 | 0.868 | 0.437 | 0.979 | 0.931 | 0.939 | 0.921 | 0.55 | 0.131 | 0.133 | 0.135 | 0.155 | 0.148 | 1.03 | 0.787 | 0.378 | 0.0583 | 0.065 |
| RERF-LC-KJ | 1.22 | 1.2 | 1.19 | 1.18 | 0.937 | 0.913 | 0.895 | 0.97 | 0.807 | 0.726 | 0.462 | 0.465 | 0.443 | 0.462 | 0.461 | 0.576 | 0.52 | 0.217 | 0.175 | 0.224 |
| SK-LU-1 | 1.79 | 1.26 | 1.44 | 1.21 | 0.582 | 1.23 | 1.02 | 1.11 | 1.06 | 0.624 | 1.06 | 0.938 | 0.956 | 0.953 | 1.06 | 0.366 | 0.331 | 0.177 | 0.128 | 0.139 |
| SW 1573 | 1.09 | 1 | 1.12 | 1.05 | 0.808 | 0.757 | 0.621 | 0.642 | 0.738 | 0.557 | 0.945 | 0.981 | 0.934 | 1.08 | 0.877 | 0.684 | 0.666 | 0.191 | 0.0527 | 0.0802 |
